Tested on in the first data set: not listed separately
Put plainly: Pharmacokinetic evaluation after intravenous or gavage administration to dogs. The format is in vivo, Beagle dogs. Particulars: by gavage, 5 mg/kg. How it is done:
The LC/MS/MS system for the analysis comprised an Agilent 1200 Series Vacuum Degasser, binary syringe pumps, a well-plate autosampler, a column oven and an Agilent G6430A Triple Quadrupole Mass Spectrometer equiped with an electrospray ionization (ESI) source, Quantitative analysis was performed in the MRM mode and the conversion parameters of MRM were listed in Table 3:
Analysis was performed on waters)(Bridge C18 (2.1×50 mm, […] column, and 5 μL of sample was injected). Conditions of the analysis comprised: a mobile phase consisted of mobile phase A (water, 2 mM ammonium formate and 0.1% formic acid) and mobile phase B (methanol, 2 mM ammonium formate and 0.1% formic acid), the flow rate was 0.4 mL/min, and the conditions of gradient elution were listed in Table 4: […]
In vivo pharmacokinetic assays in dogs of the compounds disclosed herein were performed by the following steps.
Experiments were divided into two groups, one group was performed through intravenous drug delivery, and the other group was performed by gavage. The compounds disclosed herein were administered in form of a saline solution containing 5% DMSO, 5% Kolliphor HS 15, 2% (2% HC1) and 88% Saline, or the solution containing 10% DMSO, 10% Kolliphor HS 15 and 80% physiological saline. […]
Consider `COc1ccc(S(=O)(=O)NCC(C)(C)c2cccc3ccccc23)cc1N1CCNCC1` [Example 13, 4-Methoxy-N-(2-methyl-2-(naphthalen-1-yl)propyl)-3-(piperazin-1-yl) benzenesulfonamide], for which the “area under the plasma concentration vs time curve (AUClast)” value is on record as “more than 15000 h*ng/mL”.

The target in a further data set is T1, human 5-HT6 receptor (Homo sapiens, UniProt P50406).
T1 construct: expressed in transfected cells; host or cells: CHO cells (membrane preparation)
T1 sequence (P50406 whole entry): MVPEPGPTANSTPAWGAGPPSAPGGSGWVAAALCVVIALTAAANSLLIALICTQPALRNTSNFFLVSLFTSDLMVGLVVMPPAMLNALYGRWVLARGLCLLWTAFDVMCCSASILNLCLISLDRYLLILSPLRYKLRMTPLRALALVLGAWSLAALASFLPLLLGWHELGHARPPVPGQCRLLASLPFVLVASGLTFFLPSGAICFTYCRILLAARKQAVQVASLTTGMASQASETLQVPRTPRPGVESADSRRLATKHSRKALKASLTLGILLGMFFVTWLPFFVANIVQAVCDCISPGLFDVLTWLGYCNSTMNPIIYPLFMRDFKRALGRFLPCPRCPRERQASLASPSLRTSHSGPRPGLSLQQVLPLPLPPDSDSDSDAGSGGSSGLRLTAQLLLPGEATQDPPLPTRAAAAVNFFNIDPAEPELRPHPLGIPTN
Put plainly: Radioligand binding assay ([3H]LSD) on membranes of CHO cells expressing human 5-HT6 receptor. Particulars: human 5-HT6 receptor expressed in CHO cell, 2 nM [3H]LSD, 37° C., 120 min. The procedure:
The binding affinities of the compounds of this invention to human 5-HT6 receptor expressed in CHO cell were evaluated by radioligand binding assay in this example. Briefly, for each compound of the present invention, the binding affinity thereof was tested through the following steps:
32 μg membrane proteins of CHO cell expressing human 5-HT6 receptor, 2 nM of radioactive marker [3H]LSD, a compound of the present invention having different test concentrations, 100 μM 5-HT (5-HT was used to eliminate nonspecific binding sites) and a buffer solution were mixed uniformly. Then the resulting mixture was incubated at 37° C. for 120 min, in which the buffer solution was comprised of 50 mM Tris-HC1 (pH 7.4), 10 mM MgCl2, 0.5 mM EDTA, 10 μM pargyline and 20 mg/L protease inhibitor.
After incubation, the resluting mixture was filtered by a fiberglass filter in vacuo (GF/B, Packard), and the filter membrane of the fiberglass filter was preimpregnated with 0.3% PEI before the filtering and washed with 50 mM of Tris-HC1 for several times after the filtering. After the filter membrane was dried, and the radioactivity of filter membrane was determined by liquid scintillation counting by using a scintillometer (Topcount, Packard). The reference standard was 5-HT, and IC50 values were calculated by competitive inhibition curves plotted based on several inhibition ratios and the corresponding compound concentrations.
A word on the IC50: it is the concentration that inhibits the measured activity by half. Regarding `COc1ccc(S(=O)(=O)NCCc2cccc3cc(F)ccc23)cc1N1CCN(C)CC1` [Example 6], the IC50 is 1.3 nM. Same read-out and setting: to `COc1ccc(S(=O)(=O)NCC(C)(C)c2cccc3ccccc23)cc1N1CCNCC1` [Example 13, 4-Methoxy-N-(2-methyl-2-(naphthalen-1-yl)propyl)-3-(piperazin-1-yl) benzenesulfonamide] belongs 1.3 nM. Still for that read-out and setting: to `COc1ccc(S(=O)(=O)NCCc2ccc(F)c3ccccc23)cc1N1CCN(C)CC1` [Example 36] belongs 0.46 nM. Same read-out and setting: to `COc1ccc(S(=O)(=O)NCCc2ccc(OC)c3ccccc23)cc1N1CCN(C)CC1` [Example 34] belongs 2.6 nM.

The compound `COc1ccc(S(=O)(=O)NCCc2ccc(OC)c3ccccc23)cc1N1CCNCC1` [Example 33, 4-Methoxy-N-(2-(4-methoxynaphthalen-1-yl)ethyl)-3-(piperazin-1-yl) benzenesulfonamide] showed an IC50 of 5.5 nM.

For `COc1ccc(S(=O)(=O)NCCc2cccc3ccc(Br)cc23)cc1N1CCN(C)CC1` [Example 12, N-(2-(7-Bromonaphthalen-1-yl)ethyl)-4-methoxy-3-(4-methylpiperazin-1-yl) benzene sulfonamide], the IC50 stood at 0.17 nM. On the same count and under the same terms, the result for `COc1ccc(S(=O)(=O)NCC(C)(C)c2cccc3cc(F)ccc23)cc1N1CCNCC1` [Example 15, N-(2-(6-fluoronaphthalen-1-yl)-2-methylpropyl)-4-methoxy-3-(piperazin-1-yl)benzene sulfonamide] reads 11 nM; that for `COc1ccc(S(=O)(=O)NCC2(c3cccc4cc(F)ccc34)CC2)cc1N1CCNCC1` [Example 25, N-((1-(6-fFluoronaphthalen-1-yl)cyclopropyl)methyl)-4-methoxy-3-(piperazin-1-yl) benzenesulfonamide], 16 nM; that for `COc1ccc(S(=O)(=O)NCC(C)(C)c2cccc3ccc(Br)cc23)cc1N1CCN(C)CC1` [Example 22, N-(2-(7-Bromonaphthalen-1-yl)-2-methylpropyl)-4-methoxy-3-(4-methylpiperazin-1-yl) benzenesulfonamide], 0.31 nM. `COc1ccc2cccc(C(C)(C)CNS(=O)(=O)c3ccc(OC)c(N4CCN(C)CC4)c3)c2c1` [Example 18, 4-Methoxy-N-(2-(7-methoxynaphthalen-1-yl)-2-methylpropyl)-3-(4-methylpiperazin-1-yl) benzenesulfonamide] had a half-maximal inhibitory concentration (IC50) of 1.4 nM. `COc1ccc(S(=O)(=O)NCC2(c3cccc4ccc(Br)cc34)CC2)cc1N1CCNCC1` [Example 31] registered an IC50 of 1.2 nM. On the same count and under the same terms, to `COc1ccc2cccc(CCNS(=O)(=O)c3ccc(OC)c(N4CCNCC4)c3)c2c1` [Example 7, 4-Methoxy-N-(2-(7-methoxynaphthalen-1-yl)ethyl)-3-(piperazin-1-yl) benzenesulfonamide] belongs 1 nM; to `COc1ccc2cccc(C3(CNS(=O)(=O)c4ccc(OC)c(N5CCN(C)CC5)c4)CC3)c2c1` [Example 28, 4-Methoxy-N-((1-(7-methoxynaphthalen-1-yl)cyclopropyl)methyl)-3-(4-methylpiperazin-1-yl) benzenesulfonamide], 2.1 nM. Still for that read-out and setting: to `COc1ccc(S(=O)(=O)NCCc2cccc3ccc(F)cc23)cc1N1CCN(C)CC1` [Example 10] belongs 0.28 nM; to `COc1ccc2cccc(CCNS(=O)(=O)c3ccc(OC)c(N4CCN(C)CC4)c3)c2c1` [Example 8], 0.5 nM; to `COc1ccc(S(=O)(=O)NCCc2cccc3ccccc23)cc1N1CCN(C)CC1` [Example 2], 0.92 nM. With `COc1ccc(S(=O)(=O)NCC2(c3cccc4ccccc34)CC2)cc1N1CCNCC1` [Example 23, 4-Methoxy-N-((1-(naphthalen-1-yl)cyclopropyl)methyl)-3-(piperazin-1-yl) benzenesulfonamide], the IC50 amounted to 3.7 nM. Still for that read-out and setting: to `COc1ccc(S(=O)(=O)NCCc2cccc3c(OC)cccc23)cc1N1CCNCC1` [Example 3, 4-Methoxy-N-(2-(5-methoxynaphthalen-1-yl)ethyl)-3-(piperazin-1-yl) benzenesulfonamide] belongs 31 nM.

Consider `COc1ccc(S(=O)(=O)NCCc2cccc3ccc(Br)cc23)cc1N1CCNCC1` [Example 11, N-(2-(7-Bromonaphthalen-1-yl)ethyl)-4-methoxy-3-(piperazin-1-yl) benzenesulfonamide], for which the IC50 amounted to 2.1 nM. On the same count and under the same terms, the result for `COc1ccc(S(=O)(=O)NCCc2cccc3ccc(F)cc23)cc1N1CCNCC1` [Example 9] reads 0.69 nM; that for `COc1ccc(S(=O)(=O)NCC2(c3cccc4cc(F)ccc34)CC2)cc1N1CCN(C)CC1` [Example 26, N-((1-(6-Fluoronaphthalen-1-yl)cyclopropyl)methyl)-4-methoxy-3-(4-methylpiperazin-1-yl) benzenesulfonamide], 3.2 nM. The same measure, in the same setting: the result for `COc1ccc(S(=O)(=O)NCCc2ccc(F)c3ccccc23)cc1N1CCNCC1` [Example 35] reads 1.6 nM; that for `COc1ccc(S(=O)(=O)NCCc2cccc3ccccc23)cc1N1CCNCC1` [Example 1], 2.7 nM; that for `COc1ccc2cccc(C(C)(C)CNS(=O)(=O)c3ccc(OC)c(N4CCNCC4)c3)c2c1` [Example 17, 4-Methoxy-N-(2-(7-methoxynaphthalen-1-yl)-2-methylpropyl)-3-(piperazin-1-yl)benzene sulfonamide], 1.1 nM. Same read-out and setting: to `COc1ccc(S(=O)(=O)NCCc2cccc3cc(F)ccc23)cc1N1CCNCC1` [Example 5] belongs 4.1 nM; to `COc1ccc(S(=O)(=O)NCC(C)(C)c2cccc3ccc(Br)cc23)cc1N1CCNCC1` [Example 21, N-(2-(7-Bromonaphthalen-1-yl)-2-methylpropyl)-4-methoxy-3-(piperazin-1-yl) benzenesulfonamide], 1.7 nM. `COc1ccc2cccc(C3(CNS(=O)(=O)c4ccc(OC)c(N5CCNCC5)c4)CC3)c2c1` [Example 27, 4-Methoxy-N-((1-(7-methoxynaphthalen-1-v1)cyclopropyl)methyl)-3-(piperazin-1-yl) benzenesulfonamide] returned an IC50 of 5 nM. Still for that read-out and setting: to `COc1ccc(S(=O)(=O)NCC2(c3cccc4ccc(F)cc34)CC2)cc1N1CCNCC1` [Example 29] belongs 2.3 nM; to `COc1ccc(S(=O)(=O)NCC2(c3cccc4ccccc34)CC2)cc1N1CCN(C)CC1` [Example 24, 4-Methoxy-3-(4-methylpiperazin-1-yl)-N-((1-(naphthalen-1-yl)cyclopropyl)methyl) benzenesulfonamide], 2 nM; to `COc1ccc(S(=O)(=O)NCCc2cccc3c(OC)cccc23)cc1N1CCN(C)CC1` [Example 4, 4-Methoxy-N-(2-(5-methoxynaphthalen-1-yl)ethyl)-3-(4-methylpiperazin-1-yl) benzenesulfonamide], 11 nM.

The record behind these values is patent US9840482B2, “Sulfonamide derivatives and pharmaceutical applications thereof” (Sunshine Lake Pharma Co., Ltd., priority 2014, dated 2017).
